One experiment addresses β-secretase I (BACE1) (Homo sapiens, UniProt P56817). Nature of the experiment: Biochemical assay, automated (CyclOps), BACE1. To be noted: automated CyclOps bioassay. The protocol: (§1) Unless otherwise indicated all biochemicals were purchased from Sigma-Aldrich Chemical Company, Poole, Dorset, U.K. and non-aqueous solvents, of analytical or higher grade, were purchased from ThermoFisher Scientific, Loughborough, U.K. MilliQ water (Elix 5 & MilliQ Gradient; Merck Millipore) was used as the base aqueous solvent to make up the biological buffers. Base assay buffer was prepared by adding a 50 mM solution of citric acid (1.00244; Merck Biosciences) to stirring solution of 50 mM trisodium citrate (1.06448; Merck Biosciences) until a final pH of 5.0 was achieved. […] All assays were routinely carried out in 384-well assay plates (Costar 4514; Corning Life Sciences) and incubated at 37±1° C. for 60 min. prior to reading the endpoint fluorescence intensity. The (7-methoxyl coumarin-4-yl)acetic acid based substrate β-secretase substrate VI (M2465; Bachem) was prepared as a 1 mM stock in 100% DMSO (D/4121/PB08; ThermoFisher). Assay buffer was prepared by adding DMSO to base buffer to a final concentration of 1% (vol./vol.). β-secretase I (18.64 μM; “BACE1”) and β-secretase II (4.65 μM; “BACE2”) were obtained from Janssen Pharmaceutica, Beerse, Belgium and were stored as frozen aliquots (˜20 μl) and thawed as required.
(§2) Typically 12.5 μl of assay buffer was dispensed to rows B to P of the assay plate. To row A was added 18.75 μl of test compound diluted appropriately in assay buffer. A 6.25 μl aliquot of sample was transferred from row A to row B and the sample mixed three times by pipette. The process was repeated down the plate and 6.25 μl of solution discarded at row N post-mix. Rows O and P were designated as the positive and negative controls. To row P was added 6.25 μl base buffer. To rows A to O was added 6.25 μl enzyme (freshly prepared 40 nM BACE1 or 40 nM BACE2) diluted in base buffer. To initiate the assay 6.25 μl of freshly prepared 80 μM substrate, made up by diluting the 1 mM in 100% DMSO solution into HPLC grade water (Optima W6-212; ThermoFisher), was added to all the wells. The assay plate was covered and incubated at 37±1° C. for 60 min. The fluorescence intensity of the wells was read at 360/405 nm (excitation/emission) utilising a nine reads per well protocol (50 ms integration; density of 3, 0.25 mm spacing; SpectraMAX Paradigm plate reader; TUNE cartridge; SoftMax Pro v 6.3 software; Molecular Devices UK Ltd., Wokingham, Berkshire, UK) and outputting the median value of the nine reads as a text file. Data analysis was carried out using Prism software v 6.3 (GraphPad Inc., San Diego, Calif., USA) using the non-linear regression analysis models supplied by the vendor. For IC50 determinations the four parameter logistic variable slope model was used to fit the raw fluorescence intensity data with the ‘bottom’ fixed to the negative control.
(§3) The CyclOps bioassay module consisted of a fraction collection station, a reagent station, liquid handling robotics, plate store and an integrated plate reader (SpectraMAX Paradigm, TUNE cartridge, SoftMax Pro v 6.3; Molecular Devices). The fraction collection station composed of a 384 well collection plate (P-384-240SQ-C; Axygen, Union City, Calif., USA) mounted on a H-portal carriage (Festo AG & Co. KG, Esslingen, Germany), a syringe drive and a two-way six port injection valve fitted with a 200 μl loop (VICI AG International, Schenkon Switzerland). The output of the injection valve was addressable to all the positions of a 384 well collection plate. The reagent station consisted of hydraulically cooled (10-12° C.) aluminium segments; each manufactured to house a SBS microtiter plate footprint. Independent addressable reagent stations were housed within these sections. Where required, custom aluminium housings were used to accommodate standard laboratory plastic ware (e.g. Eppendorf tubes, Falcon tubes, etc.). As and when required the reagent reservoirs were covered and the lids contained holes through which the Teflon-coated probe could access solutions. […]

A further experiment concerns the target T1, β-secretase II (BACE2) (Homo sapiens, UniProt Q9Y5Z0).
T1 sequence (Q9Y5Z0 63-518): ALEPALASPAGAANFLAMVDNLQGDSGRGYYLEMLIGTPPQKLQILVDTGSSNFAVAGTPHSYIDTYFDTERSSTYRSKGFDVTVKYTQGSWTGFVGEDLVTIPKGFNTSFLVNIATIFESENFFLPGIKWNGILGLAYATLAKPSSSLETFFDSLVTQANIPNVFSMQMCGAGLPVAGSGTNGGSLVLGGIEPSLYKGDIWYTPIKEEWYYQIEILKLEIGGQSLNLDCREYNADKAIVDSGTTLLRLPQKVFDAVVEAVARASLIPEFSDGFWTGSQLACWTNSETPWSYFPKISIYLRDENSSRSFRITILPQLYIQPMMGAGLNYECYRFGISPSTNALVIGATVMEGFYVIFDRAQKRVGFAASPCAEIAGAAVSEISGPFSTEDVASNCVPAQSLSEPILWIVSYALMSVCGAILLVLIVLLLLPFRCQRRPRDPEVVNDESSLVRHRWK
Description: Biochemical assay, automated (CyclOps), BACE2. The settings on record: automated CyclOps bioassay. The protocol: as §1, §2, §3

Experiment [1] has as its system Abeta 1-42 produced and secreted by SKNBE2 cells expressing hAPP695. Description: Cellular αLisa assay in SKNBE2 cells, Abeta 1-42. It is filed as cell-based, human. To be noted: Homo sapiens, SKNBE2, 18 h, SKNBE2 cells expressing hAPP695, 18 hours incubation; read-out: CELLULAR αLISA ASSAY IN SKNBE2 CELLS ABETA 42 PIC50 (converted). The protocol:
In two αLisa assays the levels of Abeta total and Abeta 1-42 produced and secreted into the medium of human neuroblastoma SKNBE2 cells are quantified. The assay is based on the human neuroblastoma SKNBE2 expressing the wild type Amyloid Precursor Protein (hAPP695). The compounds are diluted and added to these cells, incubated for 18 hours and then measurements of Abeta 1-42 and Abeta total are taken. Abeta total and Abeta 1-42 are measured by sandwich αLisa. αLisa is a sandwich assay using biotinylated antibody AbN/25 attached to streptavidin coated beads and antibody Ab4G8 or cAb42/26 conjugated acceptor beads for the detection of Abeta total and Abeta 1-42 respectively. In the presence of Abeta total or Abeta 1-42, the beads come into close proximity. The excitation of the donor beads provokes the release of singlet oxygen molecules that trigger a cascade of energy transfer in the acceptor beads, resulting in light emission. Light emission is measured after 1 hour incubation (excitation at […] and emission at 615 nm).
A best-fit curve is fitted by a minimum sum of squares method to the plot of % Controlmin versus compound concentration. From this an IC50 value (inhibitory concentration causing 50% inhibition of activity) can be obtained. • LC=Median of the low control values=Low control: cells preincubated without compound, without biotinylated Ab in the αLisa • HC=Median of the High control values=High Control: cells preincubated without compound
(§4) % Effect=100−[(sample−LC)/(HC−LC)*100]
(§5) % Control=(sample/HC)*100
(§6) % Controlmin=(sample−LC)/(HC−LC)*100

A further experiment concerns the target T2, BACE1 (Homo sapiens, UniProt P56817).
T2 construct: recombinant BACE1 protein in a final concentration of 0.04 μg/ml
Nature of the experiment: BACE1 biochemical FRET based assay. The settings on record: recombinant BACE1 0.04 μg/ml, 20 μM substrate, 450 min, pH 5.0; read-out: BIOCHEMICAL FRET BASED ASSAY pIC50 (converted).
Description: (§7) This assay is a Fluorescence Resonance Energy Transfer Assay (FRET) based assay. The substrate for this assay is an APP derived 13 amino acids peptide that contains the ‘Swedish’ Lys-Met/Asn-Leu mutation of the amyloid precursor protein (APP) beta-secretase cleavage site. This substrate also contains two fluorophores: (7-methoxycoumarin-4-yl) acetic acid (Mca) is a fluorescent donor with excitation wavelength at 320 nm and emission at 405 nm and 2,4-Dinitrophenyl (Dnp) is a proprietary quencher acceptor. […] Upon cleavage by BACE1, the fluorophore Mca is separated from the quenching group Dnp, restoring the full fluorescence yield of the donor. The increase in fluorescence is linearly related to the rate of proteolysis.
Briefly in a 384-well format recombinant BACE1 protein in a final concentration of 0.04 μg/ml is incubated for 450 minutes at room temperature with 20 μM substrate in incubation buffer (50 mM Citrate buffer pH 5.0, 0.05% PEG) in the presence of compound or DMSO. Next the amount of proteolysis is directly measured by fluorescence measurement (excitation at 320 nm and emission at 405 nm) at different incubation times (0, 30, 60, 90, 120 and 450 min). For every experiment a time curve (every 30 min between 0 min and 120 min) is used to determine the time where we find the lowest basal signal of the high control. The signal at this time (Tx) is used to subtract from the signal at 450 min. Results are expressed in RFU, as difference between T450 and Tx.
(§8) A best-fit curve is fitted by a minimum sum of squares method to the plot of % Controlmin versus compound concentration. From this an IC50 value (inhibitory concentration causing 50% inhibition of activity) can be obtained. • LC=Median of the low control values=Low control: Reaction without enzyme • HC=Median of the High control values=High Control: Reaction with enzyme
as §4, §5, §6

In the next experiment the target is T3, BACE2 (Homo sapiens, UniProt Q9Y5Z0).
T3 construct: recombinant BACE2 protein in a final concentration of 0.4 μg/ml
T3 sequence (Q9Y5Z0 63-518): T1 sequence (Q9Y5Z0 63-518)
Nature of the experiment: BACE2 biochemical FRET based assay. To be noted: recombinant BACE2 0.4 μg/ml, 10 μM substrate, 450 min, pH 5.0; read-out: BIOCHEMICAL FRET BASED ASSAY pIC50 (converted).
Description: as §7, with “assay” for “assay is an APP derived 13 amino acids peptide that”, “the beta-secretase,” for “BACE1,”
Briefly in a 384-well format recombinant BACE2 protein in a final concentration of 0.4 μg/ml is incubated for 450 minutes at room temperature with 10 μM substrate in incubation buffer (50 mM Citrate buffer pH 5.0, 0.05% PEG, no DMSO) in the absence or presence of compound. Next the amount of proteolysis is directly measured by fluorescence measurement at T=0 and T=450 (excitation at 320 nm and emission at 405 nm). Results are expressed in RFU (Relative Fluorescence Units), as difference between T450 and TO.
as §8, §4, §5, §6

Molecules are shown by their SMILES.

T2 sequence (P56817 46-501): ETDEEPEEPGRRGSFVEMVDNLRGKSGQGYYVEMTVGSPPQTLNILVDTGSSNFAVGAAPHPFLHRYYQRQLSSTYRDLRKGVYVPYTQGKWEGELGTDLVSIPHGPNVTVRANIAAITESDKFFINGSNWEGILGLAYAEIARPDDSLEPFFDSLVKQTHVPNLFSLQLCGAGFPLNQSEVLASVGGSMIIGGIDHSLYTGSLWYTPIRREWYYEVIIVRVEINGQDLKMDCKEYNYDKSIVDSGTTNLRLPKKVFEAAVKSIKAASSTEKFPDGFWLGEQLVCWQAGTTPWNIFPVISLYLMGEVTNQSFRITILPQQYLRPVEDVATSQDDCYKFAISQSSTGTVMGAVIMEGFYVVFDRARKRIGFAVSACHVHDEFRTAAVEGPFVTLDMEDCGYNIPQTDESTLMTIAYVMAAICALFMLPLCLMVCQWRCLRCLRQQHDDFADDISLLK
Chain of β-secretase I (BACE1) (P56817 46-501): as above

As for `COc1ncc(-c2csc3ccccc23)c2c1C[C@]1(c3ccc(F)cc3F)N=C(N)SC[C@@H]1C2` [Compound 133], on β-secretase I (BACE1), the “AUTOMATED ASSAY BACE1 pIC50” value amounted to 8.6. On β-secretase II (BACE2), the “AUTOMATED ASSAY BACE2 pIC50” value came out at 7.67.
As for `COc1ncc(-c2c(C)noc2C)c2c1C[C@]1(c3cc(OCc4cccc(C#N)c4)ccc3F)N=C(N)SC[C@@H]1C2` [Compound 147], the “AUTOMATED ASSAY BACE1 pIC50” value at β-secretase I (BACE1) is given as 7.7. In addition, the “AUTOMATED ASSAY BACE2 pIC50” value on β-secretase II (BACE2) stood at 6.64.
On to `COc1ccc(F)cc1-c1cnc(OC)c2c1C[C@H]1CSC(N)=N[C@@]1(c1cc(OCC3CCOCC3)ccc1F)C2` [Compound 143], for which the “AUTOMATED ASSAY BACE1 pIC50” value at β-secretase I (BACE1) was 6.43. Besides, the “AUTOMATED ASSAY BACE2 pIC50” value on β-secretase II (BACE2) is given as 4.78.
In the case of `COc1ncc(-c2c(C)noc2C)c2c1C[C@]1(c3cc(OC4CCOCC4)ccc3F)N=C(N)SC[C@@H]1C2` [Compound 146], the “AUTOMATED ASSAY BACE1 pIC50” value on β-secretase I (BACE1) was found to be 6.74. The “AUTOMATED ASSAY BACE2 pIC50” value on β-secretase II (BACE2) is listed as 6.63.
On to `COc1ccc(OC)c(-c2cnc(OC)c3c2C[C@H]2CSC(N)=N[C@@]2(c2cc(OCc4ccccc4F)ccc2F)C3)c1` [Compound 139], for which, at β-secretase I (BACE1), the “AUTOMATED ASSAY BACE1 pIC50” value was determined as 5.55. For the same compound, the “AUTOMATED ASSAY BACE2 pIC50” value on β-secretase II (BACE2) was determined as 4.97.
For `COc1ncc(/C=C/c2ccc(F)cc2)c2c1C[C@]1(c3ccc(F)cc3F)N=C(N)SC[C@@H]1C2` [Compound 48], the “AUTOMATED ASSAY BACE1 pIC50” value at β-secretase I (BACE1) is recorded as 7.76. Further, the “AUTOMATED ASSAY BACE2 pIC50” value at β-secretase II (BACE2) was determined as 7.63.
For the compound `COc1ncc(-c2ccccc2C)c2c1C[C@]1(c3cc(OCCc4c(C)noc4C)ccc3F)N=C(N)SC[C@@H]1C2` [Compound 144], the “AUTOMATED ASSAY BACE1 pIC50” value at β-secretase I (BACE1) was determined as 7.42. At β-secretase II (BACE2), the “AUTOMATED ASSAY BACE2 pIC50” value was 6.43.
Taken in the same sequence, the figures for `COc1ncc(-c2cccc3cnccc23)c2c1C[C@]1(c3ccc(F)cc3F)N=C(N)SC[C@@H]1C2` [Compound 132] were 7.82 and 7.16.
Turning to `COc1nccc2c1CC1(c3cc(-c4cncnc4)ccc3F)N=C(N)SCC1C2` (racemic) [Compound 10], the IC50 in experiment [1] was 8.51 nM; on BACE1, 35.5 nM; on BACE2, 457 nM.
In the same order, the values of `COc1nccc2c1C[C@]1(c3cc(-c4cncc(C#N)c4)ccc3F)N=C(N)SC[C@@H]1C2` [Compound 37] are 17 nM, 42.7 nM and 123 nM.
For `COc1nccc2c1CC1(c3cc(-c4cncnc4)c(F)cc3F)N=C(N)SCC1C2` (racemic) [Compound 11], the IC50 was 2.95 nM in experiment [1], 21.9 nM at BACE1 and 219 nM at BACE2.
For `COc1nccc2c1CC1(c3cc(-c4cncc(C#N)c4)ccc3F)N=C(N)SCC1C2` (racemic) [Compound 12], the IC50 in experiment [1] was 22.4 nM; on BACE1, 91.2 nM; at BACE2, 251 nM.
Regarding `CCOc1nccc2c1CC1(c3ccc(F)cc3F)N=C(N)SCC1C2` (racemic) [Compound 4], the IC50 is 186 nM in experiment [1], 166 nM on BACE1 and 331 nM on BACE2.

For the origin of these results see patent publication US20200010482A1, “INHIBITORS OF BETA SECRETASE” (Janssen Pharmaceutica NV, priority 2017, published 2020).
